Results: BindingDB's records for doi:10.1016/S1074-5521(99)80048-9 (University of California Berkeley, 1999)

Each compound was assayed against Cyclin-dependent kinase 1 (Homo sapiens, UniProt P06493) (assay: Inhibition Assay).
Chain of Cyclin-dependent kinase 1 (P06493 whole entry): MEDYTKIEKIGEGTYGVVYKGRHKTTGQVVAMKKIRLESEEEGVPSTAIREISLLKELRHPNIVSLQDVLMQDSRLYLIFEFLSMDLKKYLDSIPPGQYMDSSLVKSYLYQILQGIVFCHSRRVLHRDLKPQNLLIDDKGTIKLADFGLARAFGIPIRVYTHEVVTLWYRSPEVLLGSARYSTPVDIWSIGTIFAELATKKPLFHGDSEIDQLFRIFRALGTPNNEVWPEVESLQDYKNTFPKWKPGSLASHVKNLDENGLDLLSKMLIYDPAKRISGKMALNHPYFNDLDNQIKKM
Description: Inhibition assay using CDK1/cyclin B.
With `CC(C)N1CNc2c(NCCC(c3ccccc3)c3ccccc3)nc(N3CCCCC3CCO)nc21` (configuration not stated) the IC50 was 9000 nM.
In the case of `CC(C)[C@H](CO)Nc1nc(Nc2ccc(Br)cc2)c2c(n1)N(C(C)C)CN2` [2-(1 R-isopropyl-2-hydroxyethylamino)-9-isopropylpurine core C6-substituent, 73], the IC50 is reported as 40 nM.
`CC(C)[C@H](CO)Nc1nc(Nc2ccccc2)c2c(n1)N(C(C)C)CN2` [2-(1 R-isopropyl-2-hydroxyethylamino)-9-isopropylpurine core C6-substituent, 78] showed an IC50 of 240 nM.
With `CC(C)[C@H](CO)Nc1nc(Nc2ccc(O)c(C(=O)O)c2)c2c(n1)N(C(C)C)CN2` [2-(1 R-isopropyl-2-hydroxyethylamino)-9-isopropylpurine core C6-substituent, 94] the IC50 was 100 nM.
`CC(C)[C@H](CO)Nc1nc(Nc2ccc(Cl)c(C(=O)O)c2)c2c(n1)N(C(C)C)CN2` [2-(1 R-isopropyl-2-hydroxyethylamino)-9-isopropylpurine core C6-substituent, 96] gave an IC50 of 30 nM.
`CC(C)[C@H](CO)Nc1nc(NCc2cccc(I)c2)c2c(n1)N(C(C)C)CN2` [2-(1 R-isopropyl-2-hydroxyethylamino)-9-isopropylpurine core C6-substituent, 112] showed an IC50 of 170 nM.
Work on `CC(C)[C@H](CO)Nc1nc(Nc2ccc(Cl)cc2)c2c(n1)N(C(C)C)CN2` [2-(1 R-isopropyl-2-hydroxyethylamino)-9-isopropylpurine core C6-substituent, 356] yielded an IC50 of 80 nM.
In the case of `COc1ccccc1Nc1nc(NCCO)nc2c1NCN2C(C)C` [2-(2-hydroxyethylamino)-9-isopropylpurine core C6-substituents, 46], the IC50 is reported as 9000 nM.
`CC(C)N1CNc2c(Nc3ccc4ccccc4c3)nc(NCCO)nc21` [2-(2-hydroxyethylamino)-9-isopropylpurine core C6-substituents, 47] showed an IC50 of 430 nM.
`CC(C)N1CNc2c(Nc3cccc(Cl)c3)nc(NCCO)nc21` [2-(2-hydroxyethylamino)-9-isopropylpurine core C6-substituents, 52] showed an IC50 of 220 nM.
For `CC(C)N1CNc2c(NCc3cccc(I)c3)nc(N3CCCCC3CCO)nc21` (configuration not stated) [2-(2-hydroxyethylpiperidyl)-9-isopropylpurine core C6-substituent, 113], the IC50 was 6000 nM.
For `CC(C)N1CNc2c(NCc3ccccc3)nc(N3CCCCC3CCO)nc21` (configuration not stated) [2-(2-hydroxyethylpiperidyl)-9-isopropylpurine core C6-substituent, 212], the IC50 was 160 nM.
Compound `CCCCNc1nc(N2CCCCC2CCO)nc2c1NCN2C(C)C` (configuration not stated) [2-(2-hydroxyethylpiperidyl)-9-isopropylpurine core C6-substituent, 219] has an IC50 of 1300 nM.
`CC(C)N1CNc2c(Nc3ccccc3)nc(N3CCCCC3CCO)nc21` (configuration not stated) [2-(2-hydroxyethylpiperidyl)-9-isopropylpurine core C6-substituent, 220] was tested, and the IC50 was 130 nM.
`CC(C)N1CNc2c(NCc3cccc(C(F)(F)F)c3)nc(N3CCCCC3CCO)nc21` (configuration not stated) [2-(2-hydroxyethylpiperidyl)-9-isopropylpurine core C6-substituent, 222] showed an IC50 of 3000 nM.
In the case of `CC(C)N1CNc2c(NCCNc3ccccc3)nc(N3CCCCC3CCO)nc21` (configuration not stated) [2-(2-hydroxyethylpiperidyl)-9-isopropylpurine core C6-substituent, 224], the IC50 is reported as 1500 nM.
Work on `CC(C)N1CNc2c(NCc3ccc4ccccc4c3)nc(N3CCCCC3CCO)nc21` (configuration not stated) [2-(2-hydroxyethylpiperidyl)-9-isopropylpurine core C6-substituent, 226] yielded an IC50 of 1200 nM.
Compound `CC(C)N1CNc2c(N(CCN(C)C)Cc3ccccc3)nc(N3CCCCC3CCO)nc21` (configuration not stated) [2-(2-hydroxyethylpiperidyl)-9-isopropylpurine core C6-substituent, 227] has an IC50 greater than 10000 nM.
For `CC(C)N1CNc2c(Nc3ccc(Cl)cc3)nc(N3CCCCC3CCO)nc21` (configuration not stated) [2-(2-hydroxyethylpiperidyl)-9-isopropylpurine core C6-substituent, 359], the IC50 was 790 nM.
`Cc1ccc(CN(c2nc(Nc3cccc(Cl)c3)c3c(n2)N(C(C)C)CN3)[C@@H](O)C(C)C)cc1` [2-((1 R-isopropyl)-2-hydroxyethylamino)-6-(3-chloroanilino)-9-isopropylpurine core C2-substituent, 317] was tested, and the IC50 was greater than 10000 nM.
`CC(C)N1CNc2c(Nc3cccc(Cl)c3)nc(N[C@H](CO)c3ccccc3)nc21` [6-(3-chloroanilino)-9-isopropylpurine core C2-substituent, 59] was tested, and the IC50 was 800 nM.
With `CC(C)N1CNc2c(Nc3cccc(Cl)c3)nc(N[C@H](CO)C(C)(C)C)nc21` [6-(3-chloroanilino)-9-isopropylpurine core C2-substituent, 61] the IC50 was 2300 nM.
`CCC(C)[C@@H](CO)Nc1nc(Nc2cccc(Cl)c2)c2c(n1)N(C(C)C)CN2` (some centres not stated) [6-(3-chloroanilino)-9-isopropylpurine core C2-substituent, 62] gave an IC50 of 500 nM.
Compound `CC(C)N1CNc2c(Nc3cccc(Cl)c3)nc(N[C@H]3Cc4ccccc4[C@H]3O)nc21` [6-(3-chloroanilino)-9-isopropylpurine core C2-substituent, 69] has an IC50 of 5000 nM.
`CC(C)N1CNc2c(Nc3cccc(Cl)c3)nc(N[C@H](CO)Cc3ccccc3)nc21` [6-(3-chloroanilino)-9-isopropylpurine core C2-substituent, 70] was tested, and the IC50 was 500 nM.
With `CC(C)N1CNc2c(Nc3cccc(Cl)c3)nc(N(CCO)Cc3ccccc3)nc21` [6-(3-chloroanilino)-9-isopropylpurine core C2-substituent, 302] the IC50 was 5000 nM.
`CC(O)CN(CC(C)O)c1nc(Nc2cccc(Cl)c2)c2c(n1)N(C(C)C)CN2` (configuration not stated) [6-(3-chloroanilino)-9-isopropylpurine core C2-substituent, 305] was tested, and the IC50 was 350 nM.
`CC[C@H](CO)Nc1nc(Nc2cccc(Cl)c2)c2c(n1)N(C(C)C)CN2` [6-(3-chloroanilino)-9-isopropylpurine core C2-substituent, 307] showed an IC50 of 300 nM.
Work on `CC(C)C[C@H](CO)Nc1nc(Nc2cccc(Cl)c2)c2c(n1)N(C(C)C)CN2` [6-(3-chloroanilino)-9-isopropylpurine core C2-substituent, 308] yielded an IC50 of 530 nM.
Compound `COc1ccc(CNc2nc(N3CCCCC3CCO)nc3c2NCN3C(C)C)cc1` (configuration not stated) [6-(4-methoxybenzylamino) core C2-substituent, 10] has an IC50 of 210 nM.
In the case of `COc1ccc(CNc2nc(N3CCN(CCO)CC3)nc3c2NCN3C(C)C)cc1` [6-(4-methoxybenzylamino) core C2-substituent, 11], the IC50 is reported as 7000 nM.
Compound `COc1ccc(CNc2nc(N3CCN(C)CC3)nc3c2NCN3C(C)C)cc1` [6-(4-methoxybenzylamino) core C2-substituent, 12] has an IC50 of 10800 nM.
Work on `CCN(CCO)c1nc(NCc2ccc(OC)cc2)c2c(n1)N(C(C)C)CN2` [6-(4-methoxybenzylamino) core C2-substituent, 13] yielded an IC50 of 1200 nM.
`COc1ccc(CNc2nc(NCC(O)CO)nc3c2NCN3C(C)C)cc1` (configuration not stated) [6-(4-methoxybenzylamino) core C2-substituent, 15] was tested, and the IC50 was 1300 nM.
For `COc1ccc(CNc2nc(N(CC(C)O)CC(C)O)nc3c2NCN3C(C)C)cc1` (configuration not stated) [6-(4-methoxybenzylamino) core C2-substituent, 16], the IC50 was 240 nM.
`COc1ccc(CNc2nc(N3CCC(O)CC3)nc3c2NCN3C(C)C)cc1` [6-(4-methoxybenzylamino) core C2-substituent, 27] showed an IC50 of 6500 nM.
With `COc1ccc(CNc2nc(N[C@@H](CO)CC(C)C)nc3c2NCN3C(C)C)cc1` [6-(4-methoxybenzylamino) core C2-substituent, 36] the IC50 was 100 nM.
In the case of `COc1ccc(CNc2nc(N(C)CC(O)c3ccccc3)nc3c2NCN3C(C)C)cc1` (configuration not stated) [6-(4-methoxybenzylamino) core C2-substituent, 37], the IC50 is reported as 1000 nM.
`COc1ccc(CNc2nc(N3CCCCCC3)nc3c2NCN3C(C)C)cc1` [6-(4-methoxybenzylamino) core C2-substituent, 38] showed an IC50 of 4000 nM.
Work on `COc1ccc(CNc2nc(N(CCN(C)C)Cc3ccccc3)nc3c2NCN3C(C)C)cc1` [6-(4-methoxybenzylamino) core C2-substituent, 40] yielded an IC50 of 5000 nM.
Compound `COc1ccc(CNc2nc(NCC(O)CN)nc3c2NCN3C(C)C)cc1` (configuration not stated) [6-(4-methoxybenzylamino) core C2-substituent, 41] has an IC50 of 1600 nM.
With `COc1ccc(CNc2nc(N(CCO)Cc3ccccc3)nc3c2NCN3C(C)C)cc1` [6-(4-methoxybenzylamino) core C2-substituent, 49] the IC50 was 2800 nM.
`COc1ccc(CNc2nc(NCC(O)c3ccccc3)nc3c2NCN3C(C)C)cc1` (configuration not stated) [6-(4-methoxybenzylamino) core C2-substituent, 50] gave an IC50 of 2800 nM.
With `COc1ccc(CNc2nc(NCCO)nc3c2NCN3C(C)C)cc1` [6-(4-methoxybenzylamino) core C2-substituent, 118] the IC50 was 700 nM.
Work on `COc1ccc(CNc2nc(NCCCO)nc3c2NCN3C(C)C)cc1` [6-(4-methoxybenzylamino) core C2-substituent, 209] yielded an IC50 of 1200 nM.
Compound `COc1ccc(CNc2nc(N(CCO)CCCO)nc3c2NCN3C(C)C)cc1` [6-(4-methoxybenzylamino) core C2-substituent, 211] has an IC50 of 250 nM.
For `COc1ccc(CNc2nc(NC3(CO)CCCC3)nc3c2NCN3C(C)C)cc1` [6-(4-methoxybenzylamino) core C2-substituent, 314], the IC50 was 450 nM.
